In US8518895B2, “Method for treating hyponatremia employing an SGLT2 inhibitor and composition containing same” (Bristol-Myers Squibb Company, priority 2008, dated 2013):

What was measured:
[1] = tested on: Healthy Normal Volunteers; assay: Urinary glucose excretion over 24 hr in healthy normal volunteers after SGLT2 inhibitors; format: in vivo, human
diabetic patients = assay: 12-week treatment of diabetic patients: urine glucose, HbA1C, urine volume (Table 5)
patients with diabetes = details: patients with diabetes, 5, 25 or 100 mg, FIG. 2
Description: The levels of urine glucose of all subjects are shown in the plot and the mean urine glucose is in the darker lines.

type 2 diabetic patients = tested on: type 2 diabetic patients
Description: C-aryl glucoside SGLT2 inhibitors are known to reduce blood glucose levels in diabetic patients, see U.S. Pat. No. 6,774,112, which is incorporated herein by reference in its entirety, but not known to increase urine volume. […] Metformin reduces plasma glucose concentration by non-renal mechanisms and is not known to induce glucosuria. […] On day 1 and day 14, the patients were examined for the levels of glucosuria and changes in urine volumes.

[2] = diabetic patients, 2.5-50 mg, after 12 weeks of treatment

SMILES: COc1ccc(Cc2sccc2O[C@@H]2O[C@H](CO)[C@@H](O)[C@H](O)[C@H]2O)cc1 [AVE 2268]
- Glucose Output over 24 hr ([1]; dose 1200 mg): 14 g
- Glucose Output over 24 hr ([1]; dose 2000 mg): 21 g

SMILES: CCOc1ccc(Cc2cc([C@@H]3O[C@H](CO)[C@@H](O)[C@H](O)[C@H]3O)ccc2Cl)cc1 [Dapagliflozin, dapagliflozin]
- Glucose Output over 24 hr ([1]; dose 5 mg): ~32 g
- Glucose Output over 24 hr ([1]; dose 20 mg): ~64 g

SMILES: CN(C)C(=N)N=C(N)N [Metformin, metformin, reference compound]
- Urine Output (mL), change from baseline at week 12 (diabetic patients; Metformin group, N = 56, mean ± standard deviation): -95.84 ± 775.41 mL
- HbA1C levels (diabetic patients; patients treated with 1500 mg metformin): 0.73%

SMILES: CCOc1ccc(Cc2cc([C@@H]3O[C@H](CO)[C@@H](O)[C@H](O)[C@H]3O)ccc2Cl)cc1 [dapagliflozin PGS]
- Urine Output (mL), change from baseline at week 12 (diabetic patients; 2.5 mg, n = 59, mean ± standard deviation): 106.62 ± 606.88 mL
- Urine Output (mL), change from baseline at week 12 (diabetic patients; 5 mg, n = 58, mean ± standard deviation): 339.96 ± 551.34 mL
- Urine Output (mL), change from baseline at week 12 (diabetic patients; 10 mg, n = 47, mean ± standard deviation): 374.49 ± 741.62 mL
- Urine Output (mL), change from baseline at week 12 (diabetic patients; 20 mg, n = 59, mean ± standard deviation): 374.91 ± 723.13 mL
- Urine Output (mL), change from baseline at week 12 (diabetic patients; 50 mg, n = 56, mean ± standard deviation): 470.26 ± 797.51 mL
- increase in urine volume (diabetic patients; diabetic patients treated for 12 weeks): 5-20%
- OGT (diabetic patients; [2]): improved
- glucose excreted in urine every day (diabetic patients; [2]): 50 to 60 g
- reduced HbA1C levels (diabetic patients; [2]): 0.71-0.9%
- Side effects (diabetic patients; observed in some individuals, 12 weeks): urinary tract infection, dizziness, or vaginal infection
- urine glucose excretion compared to placebo (patients with diabetes): higher levels of urine glucose excretion
- fasting serum glucose (FSG) levels (type 2 diabetic patients; two-week period): Dose-dependent reduction
- postprandial glucose levels in oral glucose tolerance tests (OGTT) (type 2 diabetic patients; two-week period): reduced
- urine volumes (type 2 diabetic patients; two-week period): no increase
- urinary glucose levels within a 24-hour time period (type 2 diabetic patients; versus placebo, FIG. 3): increased
